This assay concerns facial skin vasodilation induced by electrical trigeminal ganglion stimulation. Description: Facial skin blood flow (vasodilation) after electrical trigeminal ganglion stimulation, laser Doppler flowmetry. The class given is in vivo. The following applies: anaesthetized male Wistar rat, 0.1 mg/kg i.v. 5 min prior to second stimulation.

Each structure is given as a SMILES string.

Method: Measurement of Facial Skin Blood Flow
Fasted male wistar rats (strain CHbb:THOM, 280-320 g) were anaesthetized with sodium pentobarbitone (initially with 60 mg/kg i.p. and maintained throughout the experiment with an intraperitoneal infusion of 30 mg/kg/h through a 23 G needle using a solution of 10 mg/ml). […] The trachea was cannulated and the animals were artificially respired (80 strokes/min) with room air supplemented with oxygen. The body temperature was maintained at 37° C. by an automated heating pad. The left femoral artery and the left femoral vein were cannulated for the continuous measurement of arterial blood pressure and intravenous administration of test compounds, respectively. Neuromuscular blockade was achieved by intravenous administration of pancuronium bromide (1 mg/kg/0.5 ml, 5 min prior to each electrical stimulation). Heart rate was derived from the blood pressure signal. Blood pressure and heart rate were continuously monitored throughout the course of the experiment to assess the level of anaesthesia and to monitor the cardiovascular effects of the drugs used in this study.
The animals were placed in a stereotaxic frame and a longitudinal incision was made in the scalp. […] The position of the electrodes in the trigeminal ganglia were checked visually at the end of each experiment following removal of the brain. […]

On to `CN1C[C@H](C(=O)N[C@]2(C)O[C@@]3(O)[C@@H]4CCCN4C(=O)[C@H](Cc4ccccc4)N3C2=O)C[C@@H]2c3cccc4[nH]cc(c34)C[C@H]21` [DHE, Dihydroergotamin], for which the “% of trigeminus stimulation” value (mean ± spread) was 60.4 ± 4.1%. Besides, where the note is “vs saline control”, the “% inhibition compared to control value” is given as 27.0%.
